This is an account of results in US20200093782A1, “ARIANTS OF 2-[6-(4-CHLOROPHENOXY)HEXYL]-OXIRANE-2-CARBOXYLIC ACID FOR USE IN THE TREATMENT, PREVENTION AND/OR AMELIORATION OF BRAIN DISEASES” (Meta-IQ ApS, priority 2016, published 2020).

For one data set, the system named is Male Wistar rats. The data set can be described thus: Chronic mild stress (CMS) induced depression, sucrose consumption test. It is filed as in vivo, rat. The source says:
Treatment of stress-induced depression by blocking carnitine palmitoyl transferase 1 Rats were initially exposed to four weeks of CMS and subsequently exposed to stressors for another five weeks combined with drug or vehicle treatment (FIG. 7). The intake of sucrose solution was used in order to determine the depression status among rats. […] Moreover, statistical significant difference was found between Escitalopram and Etomoxir treatment in week two, four and five.
The percentage of animals responding over time receiving Etomoxir, Escitalopram or vehicle was compared (FIG. 8). The criterion for responders was set at 20% increase in intake of sucrose at the respective weeks compared to baseline prior to onset of treatment. The percentage of responding rats to Etomoxir treatment was higher than Escitalopram treatment.
Male Wistar rats were used for the CMS model. The weight of the rats was approximately 200 g when the experiment was initiated. The rats were housed singly with 12 h light/dark cycle and food and water was available ad libitum except when these parameters were applied as stress inducers. The following paragraphs concerning the CMS model was performed according to the protocol by Wiborg et al.
In order to quantify the hedonic state of the animals a sucrose consumption test was performed. The animals were trained in five weeks in order to consume a palatable sucrose solution. […]

Data set [1] concerns rats. Briefly: Long term memory test (light/dark shock compartment) with or without MK801. It counts as in vivo, rat. To be noted: MK801, sub cutaneous injection 1 hour before the test. As to the method:
Rats are put in a cage where in the dark part (where they like to be) the bedding gives a shock. They are put in the light part during training. The next day the rats are put in the light part again, when long term memory is there, they will not like to go in the dark part (shock compartment).
MK801, blocks the generation of memory.
(§1) Etomoxir was given by sub cutaneous injection 1 hour before the test.

Another data set relates to Lewis rats. The data set can be described thus: Rat EAE model (MBP in CFA). It is filed as in vivo.
For another data set, the system named is C57B16 mice. Briefly: Mouse EAE model (MOG 35-55), therapeutic treatment. To be noted: 1 mg/kg/day s.c. in olive oil for 2 weeks, start ten days after MOG injection. It counts as in vivo. The text has this:
Six week old C57B16 mice were bred and kept at conventional animal facilities at the University of Copenhagen. Female Lewis rats, 2 months old were used for this study.
All animals were weighed and scored clinically on a daily basis. During progression of EAE, leading to motor disabilities, animals had water in a Petri dish and soaked chow for easy intake to ensure sufficient intake of liquid and nutrients. Healthy animals were used as comparison and control of the EAE exposed animals. […]
The animals were monitored daily, weighed and clinically scored according to the following scale (Imrich and Harzer 2001): 0, no clinical signs of EAE; 1, loss of tail tonus; 2, mild paresis in one or both hindlimbs; 3, moderate paresis in one or both hindlimbs; 4, severe paresis or paralysis in one or both hindlimbs; 5, paralysis in one or both hindlimbs and visible paresis in one or both forelimbs, incontinence; 6, moribund. […]
CPT1 Blockers Have a Therapeutic Effect in Rodent Models with EAE. […] The animals were daily tested for body weight and disease score (Disease was scored as follows; 0=no disease, 1=limp tail, 2=hind-limb paresis, 3=hind-limb paralysis, 4=hind/forelimb paralysis, and 5=death). […]

For data set [2], the system named is rats. Briefly: Short term memory test (3 corridors, alternation ratio) with or without MK801. As to conditions: MK801, sub cutaneous injection 1 hour before the test. It counts as in vivo, rat. As to the method:
Rats are put in a compartment with 3 corridors. While looking for food, they will first go in 1 corridor, then when no food is found go in the next and when they have a good short term memory, go in the 3rd after that. (this is measured as alternation ratio) MK801 destroys short term memory. Etomoxir restores short term memory.
as §1

Data set [3] relates to rats. The data set can be described thus: Sucrose consumption in rats after drinking the drug (test of crossing the BBB). It counts as in vivo, rat. The method, then: First rats are given R(+)-etomoxir ethyl ester formulated water (4 mg/day) every day for 20 days. Then once a week the sucrose consumption was measured. This study is designed to test is R(+)-etomoxir ethyl ester reaches the brain and therefore is it can cross the blood-brain-barrier (BBB).
Blocking CPT-1 in hypothalamus (applied in the drinking water) […] food intake.

SMILES strings stand for the structures.

Regarding `CN(C)CCC[C@@]1(c2ccc(F)cc2)OCc2cc(C#N)ccc21` [Escitalopram], in the data set with Male Wistar rats (5 weeks of treatment with continued stress, responder = 20% increase in sucrose intake vs baseline), the “percentage of responding (healthy) rats” value is listed as 57%. Moreover, in the data set with Male Wistar rats (five weeks of i.p. daily treatment under stress, Etomoxir 4 mg/kg, Escitalopram 5 mg/kg), the “intake of sucrose solution compared to vehicle group” value is “no significant difference”.

On to `CCOC(=O)[C@@]1(CCCCCCOc2ccc(Cl)cc2)CO1` [R(+)-etomoxir ethyl ester, R(+)-2-[6-(4-chlorophenoxy)hexyl]-oxirane-2-carboxylic acid ethyl ester], for which the “animals with restored long term memory” value in the data set on rats [1] was found to be 40%. Besides, in the data set on Lewis rats (treatment from day 1 or day 5 after induction, compared with placebo), the “therapeutic effects when started at day 1 or day 5” value was “significantly better therapeutic effects compared to IFNb”. Besides, in the data set with Lewis rats (treatment started at day 7 after induction, read at day 11 (end of study)), the “disease- and symptom-free rats” value was found to be 25%. Also, the “symptom-free animals at the end of the study” value in the data set with C57B16 mice is listed as 52%. Moreover, the short term memory result in the data set on rats [2] is recorded as “restores the animal's short term memory”. For the same compound, the sucrose consumption entry in the data set on rats [3] (4 mg/day in drinking water, every day for 20 days, measured once a week) is “increased sucrose consumption”. Besides, the “crossing of the blood-brain-barrier (BBB)” value in the data set with rats [3] (oral (drinking water), concluded from increased sucrose consumption) was “can cross the blood-brain-barrier (BBB) and reach the brain”.
